Test results: patent US11135224B2, “Methods of sensitizing estrogen receptor positive (ER+) breast cancer cells to endocrine therapy” (New York University, priority 2018, dated 2021)

Columns and labels:
Format in all cases: cell-based, human
TamR cells (MCF7 LCC9) [1] = experiment: Colony survival assay, TamR cells
Procedure: (§1) Cells were fixed in 70% ethanol overnight. Cells were subjected to RNaseA treatment and stained with propidium iodide (PI). Data was collected using FACScalibur and analyzed with FloJo 10.0 software. Data from 3 independent experiments are shown. SEMs are shown. **P<0.01 and ***P<0.001 by two-way ANOVA. […] TamS and TamR cells were treated with either DMSO or 1 μM 4-OH Tam and initiated on day 0. Results are representative of 3 independent experiments and presented as relative proliferation in which all samples are normalized to Day 0. Standard deviations are shown. *P<0.05 by t-test. […] Cells were treated with either DMSO or 1 μM 4-HT 24 hours after plating. Colonies scored after 10 days counting only ≥50 cells/colony. Results are representative of 3 independent experiments. SEMs are shown. ***P<0.001 by two-way ANOVA. […] Equal amounts of RNA were reverse transcribed and quantified through real-time PCR. RNA levels normalized to GAPDH using the ^−ΔΔCt method. Error bars represent SEM. […] RNA levels normalized to GAPDH using the ^−ΔΔCt method. Error bars represent SEM.
Cells were lysed in NP-40 buffer and probed for key translation factors. β-tubulin (loading control). […] Cells were treated with either DMSO or 1 μM 4-OH Tam 24 hours after plating. Dox (1 μg/mL) was administered 24 hours after plating and removed after 72 hours. Colonies scored after 10 days counting only ≥50 cells/colony. SEM is shown. […] Cells were treated with either DMSO control or 1 μM 4-OH Tam for 72 hours in 1% CS-FBS. Dox (1 μg/mL) was administered to cells for 72 hours. […] Data was collected using LSRII UV and analyzed with FloJo software. […] Data was collected using FACScalibur and analyzed with FloJo 10.0 software. […] Data was collected using FACScalibur and analyzed with FloJo 10.0 software. […] Colonies scored after 10 days counting only ≥50 cells/colony. […]
Hsp70 (loading control). […] Colonies were scored after 10 days counting only >50 cells/colony. […] Equal amounts of RNA were resolved by sucrose gradient centrifugation and ribosome profiles monitored by UV absorbance 254 nm. […]

TamR cells (MCF7 LCC9) [2] = experiment: Cell cycle analysis, TamR cells; conditions: 20 nM RAD001 plus 1 μM 4-OH Tam, 72 hours
Procedure: Cells were lysed in NP-40 buffer and probed for key translation factors. β-tubulin (loading control). […] Cells were treated with either DMSO or 1 μM 4-OH Tam 24 hours after plating. Dox (1 μg/mL) was administered 24 hours after plating and removed after 72 hours. Colonies scored after 10 days counting only ≥50 cells/colony. SEM is shown. […] Cells were treated with either DMSO control or 1 μM 4-OH Tam for 72 hours in 1% CS-FBS. Dox (1 μg/mL) was administered to cells for 72 hours. Cells were fixed in 70% ethanol overnight and subjected to RNaseA treatment. Cells were stained with Hoechst 33342. Data was collected using LSRII UV and analyzed with FloJo software. Data from 3 independent experiments are shown. SEM is shown. *P<0.05 by two-way ANOVA. […] Cap chromatography performed on TamR cells with or without 4E-BP1 cDNA overexpression. Cells were lysed in NP-40 buffer and pulldown was performed for 1 hour at 4° C. Proteins were eluted and resolved via SDS-PAGE. […] Data was collected using FACScalibur and analyzed with FloJo 10.0 software. […] Data was collected using FACScalibur and analyzed with FloJo 10.0 software. […] Colonies scored after 10 days counting only ≥50 cells/colony. […]
(§2) Cell Cycle Analysis: Cells were trypsinized, filtered, and counted using an automated cell counter (Bio-Rad). […] Data were collected using a FACScalibur or LSRII UV and analyzed with FlowJo 10.0.

[3] = test system: canonical ER signaling in BR7 cells; experiment: ER signaling mRNA expression (c-Myc, EEIG1) by real-time PCR, BR7 (PDX) cells; conditions: Tam for 24 hours
Procedure: as §1
(§3) Quantitative Real-Time PCR (RT-qPCR) and Analysis: RNA was extracted using Trizol as per the manufacturer's instructions. […] Fold change was calculated using the 2^−ΔΔCt method.

BR7 (PDX) cells = experiment: Cell cycle analysis, BR7 (PDX) cells; conditions: 1 μM 4-OH Tam
Procedure: as §1, §2

TamS cells (MCF7 LCC1) = experiment: Cell cycle analysis, TamS cells with or without eIF4E overexpression; conditions: 1 μM 4-OHT for 72 h, regardless of eIF4E overexpression
Procedure: Dox (2 μg/mL) was added 72 hours prior to lysis in NP-40 buffer. Equal protein amounts were immunoblotted as shown. β-Actin was used as a loading control. […] Dox (2 μg/mL) was added for 72 hours. Cells were subjected to exhaustive RNase A and stained with propidium iodide (PI). Flow cytometry data were collected using a FACScalibur and analyzed with FloJo software. The average of three studies is shown. […] Cells were treated with 2 μg/mL Dox for 72 hours and lysed in NP-40 buffer. Equal protein amounts were immunoblotted. β-Actin was used as a loading control. Representative results are shown. […] TamS sh-control, eIF4E-overexpressing, shTSC2, and shTSC2 and eIF4E-overexpressing cells were treated with either DMSO or 1 μM 4-OHT. (**)P<0.01; (***)P<0.0001 by two-way ANOVA. […] Results are the average of three independent studies.
Cell Cycle Analysis: Cells were trypsinized, filtered, and counted using an automated cell counter (Bio-Rad). Cells (7×10^5) were seeded on 10-cm culture plates in IMEM (Corning) with 5% FBS (Gibco) and 0.4% gentamicin sulfate (Lonza) and allowed to adhere overnight. The medium was changed to IMEM (Corning) with 1% charcoal-stripped FBS (HyClone) and 0.4% gentamicin sulfate for 48 hours. Cells were treated with the appropriate drug for 72 hours and with fresh drug after 48 hours. […] Data were collected using a FACScalibur or LSRII UV and analyzed with FlowJo 10.0.

TamR cells (MCF7 LCC9) [4] = experiment: Cell proliferation assay (MTT), TamR cells; conditions: 1 μM 4-OH Tam
Procedure: as §1
Endogenous eIF4E was silenced by shRNA. […]
Cell Proliferation Assay: Cell proliferation was measured using the CellTiter 96 nonradioactive cell proliferation assay kit (Promega) according to the manufacturer's instructions. […] Absorbance was measured at 570 nm. […]

[5] = test system: canonical ER signaling in TamR cells; experiment: ER signaling mRNA expression (c-Myc, EEIG1) by real-time PCR, TamR cells; conditions: Tam for 24 hours
Procedure: as §1, §3

| Compound | resensitization to tamoxifen: survival (TamR cells (MCF7 LCC9) [1]; 20 nM RAD001 plus 1 μM 4-OH Tam, 10 days) | cell survival on cotreatment (TamR cells (MCF7 LCC9) [1]; RAD001 added to 1 μM 4-OHT plus 10 μM CGP57380) | resensitization to tamoxifen: cell proliferation (TamR cells (MCF7 LCC9) [2]) | tamoxifen-induced repression of canonical ER signaling [3] | cell cycle distribution under tamoxifen (BR7 (PDX) cells) | proliferation in the presence of tamoxifen (TamS cells (MCF7 LCC1)) | survival under tamoxifen (TamR cells (MCF7 LCC9) [1]; 1 μM 4-OH Tam, 10 days) | proliferation under tamoxifen (TamR cells (MCF7 LCC9) [4]) | tamoxifen-induced repression of canonical ER signaling [5] |
| --- | --- | --- | --- | --- | --- | --- | --- | --- | --- |
| CO[C@H]1C[C@@H]2CC[C@@H](C)[C@@](O)(O2)C(=O)C(=O)N2CCCC[C@H]2C(=O)O[C@H]([C@H](C)C[C@@H]2CC[C@@H](OCCO)[C@H](OC)C2)CC(=O)[C@H](C)/C=C(\C)[C@@H](O)[C@@H](OC)C(=O)[C@H](C)C[C@H](C)/C=C/C=C/C=C/1C [RAD001, Everolimus] | decreased survival | further additive reduction in cell survival | restoration of inhibition of cell proliferation | – | – | – | – | – | – |
| CC/C(=C(\c1ccccc1)c1ccc(OCCN(C)C)cc1)c1ccccc1 [tamoxifen] | – | – | – | insensitive | normal cell cycle distribution | unable to proliferate | maintain normal proliferation and survival | maintain normal proliferation and survival | insensitive |
